Values quoted from earlier work, collected in patent publication US20100087382A1, “Inhibitors of Hepatitis C NS3 Protease” (BOEHRINGER INGELHEIM INTERNATIONAL GMBH, priority 2007, published 2010).
Read-outs that look alike come from different tables or passages of the source.

How the values were obtained:
[1] = system: hepatitis C virus; conditions: 28- and 14-day clinical trials, in combination with pegylated interferon with or without ribavirin, during treatment
[2] = system: hepatitis C virus; conditions: two day clinical trial, patients infected with hepatitis C virus

Structure (SMILES) | viral load in patients [1] | viral load in patients [2]
CCC[C@H](NC(=O)[C@@H]1[C@H]2CCC[C@H]2CN1C(=O)[C@@H](NC(=O)[C@@H](NC(=O)c1cnccn1)C1CCCCC1)C(C)(C)C)C(=O)C(=O)NC1CC1 [VX-950] | rapidly decreased to undetectable levels | 
COc1ccc2c(O[C@@H]3C[C@H]4C(=O)N[C@]5(C(=O)O)C[C@H]5/C=C\CCCCC[C@H](NC(=O)OC5CCCC5)C(=O)N4C3)cc(-c3csc(NC(C)C)n3)nc2c1 [BILN 2061] |  | effective in rapidly reducing viral loads
